Patent US11834453B2, “Substituted pyrimido[5,4-d]pyrimidines as HER2 inhibitors” (Array BioPharma Inc., priority 2020, dated 2023)
Where two headings read alike, the source gives them in different places.

Key:
[1] = biological target: ErbB2 WT (Homo sapiens (Human), UniProt P04626); test: ErbB enzyme assay (CisBio HTRF KinEASE-TK), Assay 2; type: biochemical
Protocol: Compound potencies were determined using CisBio's HTRF Kinease-TK assay technology. The kinases were incubated with 250 nM TK-substrate biotin (CisBio, part of cat #62TK0PEC) at 1 mM ATP along with test compounds in a buffer consisting of 25 mM HEPES, pH 7.4, 10 mM MgCl2, 0.01% Triton X-100, and 2% DMSO in a volume of 8 μL. […] After 30-minute incubation at 22° C., the reaction was quenched by adding 8 μL of quench solution containing 62.5 nM Sa-XL665 and 0.25× TK-Ab-Cryptate in HTRF detection buffer (all from CisBio, part of cat #62TK0PEC). After a 1-hour incubation at 22° C., the extent of reaction was determined using a PerkinElmer EnVision multimode plate reader via HTRF dual wavelength detection, and the percent of control (POC) was calculated using a ratiometric emission factor. One hundred POC was determined using DMSO only samples (no compound present), and 0 POC was determined using pre-quenched control reactions.
(§1) Enzyme lots and concentration used are in Table 2.

[2] = biological target: EGFR (Homo sapiens (Human), UniProt P00533); test: ErbB enzyme assay (CisBio HTRF KinEASE-TK), Assay 3; type: biochemical
Chain of EGFR (P00533 25-1210): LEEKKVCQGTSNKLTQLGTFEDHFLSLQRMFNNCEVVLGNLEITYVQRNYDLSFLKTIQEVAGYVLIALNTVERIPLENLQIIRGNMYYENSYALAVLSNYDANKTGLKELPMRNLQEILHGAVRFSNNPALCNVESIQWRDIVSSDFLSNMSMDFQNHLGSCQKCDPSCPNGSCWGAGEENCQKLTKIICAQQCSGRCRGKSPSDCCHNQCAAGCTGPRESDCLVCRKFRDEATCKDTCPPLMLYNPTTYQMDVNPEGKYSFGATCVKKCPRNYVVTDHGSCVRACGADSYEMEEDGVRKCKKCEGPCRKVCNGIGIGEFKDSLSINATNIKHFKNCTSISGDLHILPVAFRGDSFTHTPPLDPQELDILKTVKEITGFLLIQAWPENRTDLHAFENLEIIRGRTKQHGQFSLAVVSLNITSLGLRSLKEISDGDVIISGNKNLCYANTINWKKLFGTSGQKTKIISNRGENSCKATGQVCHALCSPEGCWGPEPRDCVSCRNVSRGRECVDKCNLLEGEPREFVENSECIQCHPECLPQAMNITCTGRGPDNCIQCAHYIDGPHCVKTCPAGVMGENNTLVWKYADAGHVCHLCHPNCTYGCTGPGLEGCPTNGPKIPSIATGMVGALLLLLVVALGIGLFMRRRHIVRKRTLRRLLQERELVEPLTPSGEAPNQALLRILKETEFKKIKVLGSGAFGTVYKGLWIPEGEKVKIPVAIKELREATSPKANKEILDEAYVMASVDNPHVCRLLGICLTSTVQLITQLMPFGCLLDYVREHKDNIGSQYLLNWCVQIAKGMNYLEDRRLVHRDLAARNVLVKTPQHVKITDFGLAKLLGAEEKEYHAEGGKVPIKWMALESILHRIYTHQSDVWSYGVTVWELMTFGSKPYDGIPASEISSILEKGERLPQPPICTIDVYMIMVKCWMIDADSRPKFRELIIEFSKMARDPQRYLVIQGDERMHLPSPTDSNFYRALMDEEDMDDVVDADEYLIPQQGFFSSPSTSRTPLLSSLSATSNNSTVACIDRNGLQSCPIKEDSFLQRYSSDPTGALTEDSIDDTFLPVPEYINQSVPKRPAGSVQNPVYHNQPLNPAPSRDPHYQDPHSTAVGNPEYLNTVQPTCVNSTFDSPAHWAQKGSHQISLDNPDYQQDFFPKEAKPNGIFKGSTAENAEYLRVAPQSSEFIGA
Protocol: Compound potencies were determined using CisBio's HTRF Kinease-TK assay technology. The kinases were incubated with 250 nM TK-substrate biotin (CisBio, part of cat #62TK0PEC) at 1 mM ATP along with test compounds in a buffer consisting of 25 mM HEPES, pH 7.4, 10 mM MgCl2, 0.01% Triton X-100, and 2% DMSO in a volume of 8 μL. Compounds were prepared as a three-fold serial dilution in DMSO and added to the assay to give the appropriate final concentration. After 30-minute incubation at 22° C., the reaction was quenched by adding 8 μL of quench solution containing 62.5 nM Sa-XL665 and 0.25× TK-Ab-Cryptate in HTRF detection buffer (all from CisBio, part of cat #62TK0PEC). After a 1-hour incubation at 22° C., the extent of reaction was determined using a PerkinElmer EnVision multimode plate reader via HTRF dual wavelength detection, and the percent of control (POC) was calculated using a ratiometric emission factor. One hundred POC was determined using DMSO only samples (no compound present), and 0 POC was determined using pre-quenched control reactions. A 4-parameter logistic curve was fit to the POC values as a function of the concentration of compound, and the IC50 value was the point where the best-fit curve crossed 50 POC.
as §1

[3] = biological target: ErbB2 with Exon 20 YVMA insertion (HER2-YVMA) (Homo sapiens (Human), UniProt P04626, INS775YVMA); test: Cellular phosphorylation assay, constitutive ErbB2 phosphorylation (Y1196) in engineered NIH 3T3 cells, Assay 4; type: cell-based
Chain of ErbB2 with Exon 20 YVMA insertion (HER2-YVMA) (P04626 other isoform, or with tags, fused parts or gaps ins YVMA behind 775): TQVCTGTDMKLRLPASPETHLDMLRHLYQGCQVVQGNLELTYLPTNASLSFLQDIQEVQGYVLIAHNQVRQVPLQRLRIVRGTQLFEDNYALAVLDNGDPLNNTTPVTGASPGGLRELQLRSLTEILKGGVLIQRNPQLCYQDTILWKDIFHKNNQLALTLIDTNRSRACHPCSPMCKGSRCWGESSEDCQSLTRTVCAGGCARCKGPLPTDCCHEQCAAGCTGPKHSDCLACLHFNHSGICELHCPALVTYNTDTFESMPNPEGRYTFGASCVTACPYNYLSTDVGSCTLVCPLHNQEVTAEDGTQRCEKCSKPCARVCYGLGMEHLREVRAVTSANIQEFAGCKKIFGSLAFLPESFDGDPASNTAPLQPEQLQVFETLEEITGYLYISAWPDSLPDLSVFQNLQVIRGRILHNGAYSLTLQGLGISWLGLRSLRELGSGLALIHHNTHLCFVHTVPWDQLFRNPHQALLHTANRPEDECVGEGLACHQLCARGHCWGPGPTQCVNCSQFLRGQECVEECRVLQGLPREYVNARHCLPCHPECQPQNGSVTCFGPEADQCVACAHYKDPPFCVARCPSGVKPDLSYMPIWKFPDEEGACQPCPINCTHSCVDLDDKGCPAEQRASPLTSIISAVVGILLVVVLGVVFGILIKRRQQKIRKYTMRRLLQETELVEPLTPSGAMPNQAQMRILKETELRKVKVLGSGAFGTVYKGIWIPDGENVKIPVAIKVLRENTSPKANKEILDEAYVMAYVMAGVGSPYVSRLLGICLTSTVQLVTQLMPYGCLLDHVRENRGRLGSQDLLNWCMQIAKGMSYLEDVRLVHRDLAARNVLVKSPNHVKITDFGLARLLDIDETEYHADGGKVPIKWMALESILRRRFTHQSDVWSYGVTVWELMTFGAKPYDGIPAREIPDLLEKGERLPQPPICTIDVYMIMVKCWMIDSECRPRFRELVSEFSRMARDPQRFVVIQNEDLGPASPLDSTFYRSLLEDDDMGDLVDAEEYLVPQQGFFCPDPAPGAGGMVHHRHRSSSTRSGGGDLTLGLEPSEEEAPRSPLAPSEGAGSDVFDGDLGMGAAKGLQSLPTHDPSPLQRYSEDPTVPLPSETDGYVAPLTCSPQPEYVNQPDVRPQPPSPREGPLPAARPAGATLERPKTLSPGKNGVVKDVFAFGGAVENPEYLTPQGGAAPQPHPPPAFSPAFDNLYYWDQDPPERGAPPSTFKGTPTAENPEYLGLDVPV
Protocol: Serially diluted compounds were added to the plates for 1 hour at 37° C./5% CO2. EGFR WT cells were stimulated with 100 ng/ml rEGF for an additional 10 minutes at 37° C./5% CO2. After compound incubation, medium was removed from the cells, which were then fixed in 3.7% formaldehyde in PBS at room temperature for 20 minutes. Following a wash with PBS, cells were permeabilized with 100% methanol at room temperature for 10 minutes. Cells were then washed with PBS/0.05% Tween-20 and blocked with Odyssey blocking buffer (LI-COR Biosciences) for at least 1 hour at room temperature. Antibodies to phosphorylated ErbB2 (Y1196, Cell Signaling #6942) or phosphorylated EGFR (Y1068, Cell Signaling #3777) and GAPDH (Millipore #MAB374) were added to the cells in blocking buffer containing 0.05% azide and incubated overnight at 4° C. After washing with PBS/0.05° i° Tween-20, the cells were incubated with fluorescently labeled secondary anti-rabbit antibody (LiCOR, IRDye 800CW #926-32211) and anti-mouse antibody (Molecular Probes, Alexa Fluor 680 #A21058) for 1 hour at room temperature in the dark. Cells were then washed and analyzed for fluorescence at both wavelengths using the Odyssey Infrared Imaging System (LI-COR Biosciences). Phosphorylated ErbB2 and EGFR signal was normalized to GAPDH signal to generate curves and calculate IC50 values.

[4] = biological target: ErbB2 insYVMA (HER2-YVMA, SEQ ID NO: 2) (Homo sapiens, UniProt P04626, INS775YVMA/P1170A); test: biochemical; conditions: ErbB2 insYVMA enzyme assay
Chain of ErbB2 insYVMA (HER2-YVMA, SEQ ID NO: 2) (P04626 with tags, fused parts or gaps INS775YVMA/P1170A limits assumed): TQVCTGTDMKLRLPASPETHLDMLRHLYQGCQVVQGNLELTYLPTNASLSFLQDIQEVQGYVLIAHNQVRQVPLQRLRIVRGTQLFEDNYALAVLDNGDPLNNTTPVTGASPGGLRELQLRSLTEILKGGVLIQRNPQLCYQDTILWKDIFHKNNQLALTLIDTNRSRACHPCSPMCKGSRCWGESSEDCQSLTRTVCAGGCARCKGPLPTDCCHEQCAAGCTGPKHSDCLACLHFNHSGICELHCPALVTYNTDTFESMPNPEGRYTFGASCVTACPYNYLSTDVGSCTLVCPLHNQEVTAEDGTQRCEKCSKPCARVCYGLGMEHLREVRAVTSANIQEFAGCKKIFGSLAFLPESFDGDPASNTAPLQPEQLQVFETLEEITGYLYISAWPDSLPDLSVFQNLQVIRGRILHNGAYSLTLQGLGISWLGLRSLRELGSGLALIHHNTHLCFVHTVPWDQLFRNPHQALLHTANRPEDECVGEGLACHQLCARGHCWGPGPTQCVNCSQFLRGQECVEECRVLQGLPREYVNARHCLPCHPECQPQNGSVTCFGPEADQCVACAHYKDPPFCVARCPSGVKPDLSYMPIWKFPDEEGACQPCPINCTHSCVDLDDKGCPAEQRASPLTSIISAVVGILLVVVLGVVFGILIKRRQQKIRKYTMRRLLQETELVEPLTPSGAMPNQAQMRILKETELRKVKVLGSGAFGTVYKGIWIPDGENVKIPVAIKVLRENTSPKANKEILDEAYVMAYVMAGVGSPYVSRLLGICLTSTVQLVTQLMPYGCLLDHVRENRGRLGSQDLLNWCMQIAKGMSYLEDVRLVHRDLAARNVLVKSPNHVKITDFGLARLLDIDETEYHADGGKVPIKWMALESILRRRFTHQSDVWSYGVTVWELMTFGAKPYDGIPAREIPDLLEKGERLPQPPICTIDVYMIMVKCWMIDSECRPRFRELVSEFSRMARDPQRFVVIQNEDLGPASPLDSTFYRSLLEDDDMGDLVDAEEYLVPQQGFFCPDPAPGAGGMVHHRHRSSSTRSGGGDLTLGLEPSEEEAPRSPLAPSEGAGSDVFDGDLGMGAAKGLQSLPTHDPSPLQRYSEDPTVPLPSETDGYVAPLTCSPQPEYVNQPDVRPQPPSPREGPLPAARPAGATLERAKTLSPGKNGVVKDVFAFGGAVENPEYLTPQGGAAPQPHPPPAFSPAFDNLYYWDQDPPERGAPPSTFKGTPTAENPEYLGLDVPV

Chain of ErbB2 WT (P04626 23-1255): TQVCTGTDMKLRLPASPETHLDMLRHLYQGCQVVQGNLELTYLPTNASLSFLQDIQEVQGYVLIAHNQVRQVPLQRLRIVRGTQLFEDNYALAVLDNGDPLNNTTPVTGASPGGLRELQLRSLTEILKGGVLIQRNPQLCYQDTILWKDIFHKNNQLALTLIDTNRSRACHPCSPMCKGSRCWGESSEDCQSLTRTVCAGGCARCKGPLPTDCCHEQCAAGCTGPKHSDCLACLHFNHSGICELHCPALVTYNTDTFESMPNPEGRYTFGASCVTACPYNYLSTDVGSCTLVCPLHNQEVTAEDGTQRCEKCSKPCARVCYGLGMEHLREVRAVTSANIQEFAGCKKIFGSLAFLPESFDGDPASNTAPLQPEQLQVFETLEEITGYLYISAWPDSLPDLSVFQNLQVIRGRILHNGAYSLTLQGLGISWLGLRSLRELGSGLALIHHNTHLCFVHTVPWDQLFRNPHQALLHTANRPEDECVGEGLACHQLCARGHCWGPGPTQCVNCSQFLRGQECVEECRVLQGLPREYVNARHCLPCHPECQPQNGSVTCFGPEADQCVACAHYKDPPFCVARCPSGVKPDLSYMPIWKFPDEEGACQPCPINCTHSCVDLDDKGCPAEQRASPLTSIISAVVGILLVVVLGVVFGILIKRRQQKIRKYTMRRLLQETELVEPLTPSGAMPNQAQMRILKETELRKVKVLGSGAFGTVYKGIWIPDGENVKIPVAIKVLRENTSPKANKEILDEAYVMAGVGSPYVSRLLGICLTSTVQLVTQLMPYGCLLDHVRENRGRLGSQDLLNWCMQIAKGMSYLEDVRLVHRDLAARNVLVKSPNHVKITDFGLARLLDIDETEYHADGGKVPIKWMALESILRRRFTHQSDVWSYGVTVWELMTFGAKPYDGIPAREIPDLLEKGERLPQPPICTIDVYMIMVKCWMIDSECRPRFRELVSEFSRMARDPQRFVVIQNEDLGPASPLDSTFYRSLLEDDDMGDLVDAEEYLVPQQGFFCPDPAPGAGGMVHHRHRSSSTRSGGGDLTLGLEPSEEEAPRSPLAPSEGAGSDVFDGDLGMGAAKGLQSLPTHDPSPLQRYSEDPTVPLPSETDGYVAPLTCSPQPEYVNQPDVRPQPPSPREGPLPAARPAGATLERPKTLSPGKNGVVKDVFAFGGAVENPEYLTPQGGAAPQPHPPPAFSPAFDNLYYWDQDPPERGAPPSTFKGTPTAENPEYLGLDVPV

Compound | IC50 [1] [nM] | IC50 [2] [nM] | IC50 [3] [nM] | IC50 ([4]; read-out: Assay 1 IC50) [nM] | IC50 ([4]; Assay 1 IC50 (nM)) [nM]
Cc1cc(Nc2ncnc3cnc(N4CC5(CCOC5)C4)nc23)ccc1Oc1ccc2c(c1)ncn2C [Example 21, N-(3-methyl-4-((1-methyl-1H-benzo[d]imidazol-5-yl)oxy)phenyl)-6-(6-oxa-2-azaspiro[3.4]octan-2-yl)pyrimido[5,4-d]pyrimidin-4-amine] | 98.4 | 1000 | 82.7 | 33.7 | 
Cc1cc(Nc2ncnc3cnc(N4CCC5(COC5)C4)nc23)ccc1Oc1ccc2c(c1)ncn2C [Example 422] | 93.2 | ≥ 10000 | 96.7 | 58.4 | 
Cn1cnc2cc(Oc3ccc(Nc4ncnc5cnc(N6CCOCC6)nc45)cc3Cl)ccc21 [Example 81, N-(3-chloro-4-((1-methyl-1H-benzo[d]imidazol-5-yl)oxy)phenyl)-6-morpholinopyrimido[5,4-d]pyrimidin-4-amine 2,2,2-trifluoroacetate] | 847 | ≥ 10000 | 77.1 |  | 153
CO[C@H]1CCCN(c2ncc3ncnc(Nc4ccc(Oc5ccc6c(c5)ncn6C)c(C)c4)c3n2)C1 [Example 248] | 122 | ≥ 10000 | 65.7 | 57.4 | 
Cc1cc(Nc2ncnc3cnc(N4CC[C@H](C)C4=O)nc23)ccc1Oc1ccc2c(c1)ncn2C [Example 250] | 67.6 | ≥ 10000 | 54.6 | 46.3 | 
CCCOc1ncc2ncnc(Nc3ccc(Oc4ccc5c(c4)ncn5C)c(C)c3)c2n1 [Example 221] | 334 | ≥ 10000 | 548 | 122 | 
Cc1cc(Nc2ncnc3cnc(N4CC5CC(C4)N5C)nc23)ccc1Oc1ccc2c(c1)ncn2C [Example 33, N-(3-methyl-4-((1-methyl-1H-benzo[d]imidazol-5-yl)oxy)phenyl)-6-(6-methyl-3,6-diazabicyclo[3.1.1]heptan-3-yl)pyrimido[5,4-d]pyrimidin-4-amine] | 371 | ≥ 10000 | 583 | 100 | 
Cc1cc(Nc2ncnc3cnc(N4CCCCC4)nc23)ccc1Oc1ccc2c(c1)ncn2C [Example 242] | 130 | ≥ 10000 | 76.3 | 111 | 
Cc1cc(Nc2ncnc3cnc(N4C[C@H](C)O[C@@H](C)C4)nc23)ccc1Oc1ccc2c(c1)ncn2C [Example 72, 6-((2S,6S)-2,6-dimethylmorpholino)-N-(3-methyl-4-((1-methyl-1H-benzo[d]imidazol-5-yl)oxy)phenyl)pyrimido[5,4-d]pyrimidin-4-amine] | 83.9 | ≥ 10000 | 76.6 |  | 69.6
Cc1cc(Nc2ncnc3cnc(OCC(F)F)nc23)ccc1Oc1ccc2c(c1)ncn2C [Example 177, 6-(2,2-difluoroethoxy)-N-(3-methyl-4-((1-methyl-1H-benzo[d]imidazol-5-yl)oxy)phenyl)pyrimido[5,4-d]pyrimidin-4-amine] | 150 | ≥ 10000 | 109 | 53.2 | 
CO[C@@H]1CCCN(c2ncc3ncnc(Nc4ccc(Oc5ccc6c(c5)ncn6C)c(C)c4)c3n2)C1 [Example 227] | 66.9 | ≥ 10000 | 53.8 | 47.4 | 
Cc1cc(Nc2ncnc3cnc(N4CCCC(OC(F)F)C4)nc23)ccc1Oc1ccc2c(c1)ncn2C (racemic) [Example 40, 6-(3-(difluoromethoxy)piperidin-1-yl)-N-(3-methyl-4-((1-methyl-1H-benzo[d]imidazol-5-yl)oxy)phenyl)pyrimido[5,4-d]pyrimidin-4-amine] | 145 | ≥ 10000 | 91.5 | 71.5 | 
Cc1cc(Nc2ncnc3cnc(N4CC[C@H]4C(C)(C)O)nc23)ccc1Oc1ccc2c(c1)ncn2C [Example 407] | 117 | ≥ 10000 | 84.1 | 31.5 | 
Cc1cc(Nc2ncnc3cnc(N4CCCCS4(=O)=O)nc23)ccc1Oc1ccc2c(c1)ncn2C [Example 437] | 146 | ≥ 10000 | 95.8 | 40.8 | 
Cc1cc(Nc2ncnc3cnc(N4CCC4C(F)(F)F)nc23)ccc1Oc1ccc2c(c1)ncn2C (stereo not shown) [Example 238] | 227 | ≥ 10000 | 163 | 99.3 | 
Cc1c(Oc2ccc3c(c2)ncn3C)ccc(Nc2ncnc3cnc(N4CC5CC4CO5)nc23)c1F (stereo not shown) [Example 454] | 48.1 | 4110 | 54.7 | 15.3 | 
CC(=O)N1C2CC1CN(c1ncc3ncnc(Nc4ccc(Oc5ccc6c(c5)ncn6C)c(C)c4)c3n1)C2 [Example 89, 1-(3-(8-((3-methyl-4-((1-methyl-1H-benzo[d]imidazol-5-yl)oxy)phenyl)amino)pyrimido[5,4-d]pyrimidin-2-yl)-3,6-diazabicyclo[3.1.1]heptan-6-yl)ethan-1-one] | 285 | ≥ 10000 | 187 | 68.1 | 
Cc1cc(Nc2ncnc3cnc(O[C@@H]4CNC[C@@H]4F)nc23)ccc1Oc1ccc2c(c1)ncn2C [Example 86, 6-(((3R,4S)-4-fluoropyrrolidin-3-yl)oxy)-N-(3-methyl-4-((1-methyl-1H-benzo[d]imidazol-5-yl)oxy)phenyl)pyrimido[5,4-d]pyrimidin-4-amine] | 301 | ≥ 10000 | 261 |  | 
Cc1cc(Nc2ncnc3cnc(N4CC5CC(C5)C4)nc23)ccc1Oc1ccc2c(c1)ncn2C [Example 39, 6-(3-azabicyclo[3.1.1]heptan-3-yl)-N-(3-methyl-4-((1-methyl-1H-benzo[d]imidazol-5-yl)oxy)phenyl)pyrimido[5,4-d]pyrimidin-4-amine] | 358 | ≥ 10000 | 292 | 199 | 
Cc1cc(Nc2ncnc3cnc(OCC(C)(C)O)nc23)ccc1Oc1ccc2c(c1)ncn2C [Example 476] | 232 | ≥ 10000 | 155 | 39.5 | 
Cc1cc(Nc2ncnc3cnc(O[C@@H]4CNC[C@@H]4F)nc23)ccc1Oc1ccc2c(c1)ncn2C [Example 283] | 301 | ≥ 10000 | 261 | 39.5 | 
Cc1cc(Nc2ncnc3cnc(N(C)Cc4ccccc4)nc23)ccc1Oc1ccc2c(c1)ncn2C [Example 331] | 389 | ≥ 10000 |  | 406 | 
Cc1c(Oc2ccn3ncnc3c2)ccc(Nc2ncnc3cnc(N4C[C@@H]5CC4CO5)nc23)c1F [Example 313] | 40.4 |  |  | 21.3 | 
Cc1cc(Nc2ncnc3cnc(N(C)c4cnn(C)c4)nc23)ccc1Oc1ccc2c(c1)ncn2C [Example 108, N2-methyl-N2-(1-methyl-1H-pyrazol-4-yl)-N8-(3-methyl-4-((1-methyl-1H-benzo[d]imidazol-5-yl)oxy)phenyl)pyrimido[5,4-d]pyrimidine-2,8-diamine] | 38.9 | 4310 |  | 38.4 | 
Cc1cc(Nc2ncnc3cnc(N(C)C4CCCOC4)nc23)ccc1Oc1ccc2c(c1)ncn2C (stereo not shown) [Example 473] | 20 |  |  | 21.6 | 
Cc1cc(Nc2ncnc3cnc(N4CCN(C)[C@H](C)C4)nc23)ccc1Oc1ccc2c(c1)ncn2C [Example 490] |  | ≥ 10000 |  |  | 
